Where “and” joins values, the source holds several entries; their conditions need not be identical. Equal entries are not always repeated. Toxic doses and inconclusive results are not listed. Rule for the calls: active = survival T/C of 150% or more; inactive = T/C below 125% in these data.
Test system: CD2F1 mice, L1210 leukemia ip, survival T/C
Assay: NCI In Vivo Anticancer Drug Screen. Data for tumor model L1210 Leukemia (intraperitoneal) in CD2F1 (CDF1) mice
Settings: higher = longer survival
How it was run: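 Ratio T/C, where T is the treated-group value and C the vehicle-dosed control value, from mice implanted with a transplantable tumor.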

[1] = endpoint: mean survival time, dose: 100.0 mg/kg/injection, schedule: Q04DX003 (ip), vehicle: saline with Tween-80
[2] = endpoint: mean survival time, dose: 200.0 mg/kg/injection, schedule: Q04DX003 (ip), vehicle: saline with Tween-80
[3] = endpoint: mean survival time, dose: 100.0 mg/kg/injection, schedule: Q04DX002 (ip), vehicle: saline with Tween-80

Measured: T/C

S=c1nccc[nH]1.[Pd]
inactive: endpoint: mean survival time, dose: 3.13 mg/kg/injection, schedule: Q04DX003 (ip), vehicle: distilled water + Tween-80 97 % of control | endpoint: mean survival time, dose: 6.25 mg/kg/injection, schedule: Q04DX003 (ip), vehicle: distilled water + Tween-80 94 % of control | endpoint: mean survival time, dose: 12.5 mg/kg/injection, schedule: Q04DX003 (ip), vehicle: distilled water + Tween-80 89 % of control | endpoint: mean survival time, dose: 25.0 mg/kg/injection, schedule: Q04DX003 (ip), vehicle: distilled water + Tween-80 89 % of control | endpoint: mean survival time, dose: 50.0 mg/kg/injection, schedule: Q04DX003 (ip), vehicle: distilled water + Tween-80 89 % of control

CN(C)Cc1[c-]c(CN(C)C)ccc1.[Cl][Pt]
inactive: endpoint: median survival time, dose: 1.56 mg/kg/injection, schedule: Q04DX003 (ip), vehicle: saline 101 % of control | endpoint: median survival time, dose: 3.12 mg/kg/injection, schedule: Q04DX003 (ip), vehicle: saline 91 % of control and 107 % of control | endpoint: median survival time, dose: 6.25 mg/kg/injection, schedule: Q04DX003 (ip), vehicle: saline 111 % of control | endpoint: median survival time, dose: 12.5 mg/kg/injection, schedule: Q04DX003 (ip), vehicle: saline 96 % of control and 107 % of control | endpoint: median survival time, dose: 25.0 mg/kg/injection, schedule: Q04DX003 (ip), vehicle: saline 100 % of control and 107 % of control | endpoint: median survival time, dose: 50.0 mg/kg/injection, schedule: Q04DX003 (ip), vehicle: saline 100 % of control and 101 % of control | endpoint: median survival time, dose: 100.0 mg/kg/injection, schedule: Q04DX003 (ip), vehicle: saline 98 % of control

C=C1C(=O)OC2CC3(C)OC3CC/C(C)=C/C(OC(C)=O)C12 (configuration not stated)
inactive: [1] 105 % of control | [2] 91 % of control

O=C1OCCN1NCc1ccc(Cl)cc1
inactive: endpoint: mean survival time, dose: 12.5 mg/kg/injection, schedule: Q01DX009 (ip), vehicle: DMSO 88 % of control | endpoint: mean survival time, dose: 25.0 mg/kg/injection, schedule: Q01DX009 (ip), vehicle: DMSO 93 % of control | endpoint: mean survival time, dose: 50.0 mg/kg/injection, schedule: Q01DX009 (ip), vehicle: DMSO 89 % of control and 91 % of control | endpoint: mean survival time, dose: 100.0 mg/kg/injection, schedule: Q01DX009 (ip), vehicle: DMSO 96 % of control

CC1C(=O)OC2C1CCC1(C)C(O)OC(=O)C(C)C21 (configuration not stated)
inactive: [3] 104 % of control and 96 % of control | endpoint: mean survival time, dose: 200.0 mg/kg/injection, schedule: Q04DX002 (ip), vehicle: saline with Tween-80 100 % of control and 108 % of control | endpoint: mean survival time, dose: 400.0 mg/kg/injection, schedule: Q04DX002 (ip), vehicle: saline with Tween-80 100 % of control and 104 % of control

CC1C(=O)OC2C1CCC1(C)C3OC3C(=O)C3(C)OC231 (configuration not stated)
inactive: [3] 96 % of control

Nc1ncnc2c1c1c(=O)[nH]cnc1n2C1OC(CO)C(O)C1O (configuration not stated)
inactive: endpoint: mean survival time, dose: 6.25 mg/kg/injection, schedule: Q01DX005 (ip), vehicle: Klucel (hydroxypropylcellulose) (HPC) 98 % of control | endpoint: mean survival time, dose: 12.5 mg/kg/injection, schedule: Q01DX005 (ip), vehicle: Klucel (hydroxypropylcellulose) (HPC) 104 % of control | endpoint: mean survival time, dose: 25.0 mg/kg/injection, schedule: Q01DX005 (ip), vehicle: Klucel (hydroxypropylcellulose) (HPC) 108 % of control | endpoint: mean survival time, dose: 50.0 mg/kg/injection, schedule: Q01DX005 (ip), vehicle: Klucel (hydroxypropylcellulose) (HPC) 115 % of control | endpoint: mean survival time, dose: 100.0 mg/kg/injection, schedule: Q01DX005 (ip), vehicle: Klucel (hydroxypropylcellulose) (HPC) 120 % of control

O=c1[nH]c(=O)n(C2CC(O)C(CO)O2)cc1CN1CCCC1 (configuration not stated)
inactive: endpoint: mean survival time, dose: 6.25 mg/kg/injection, schedule: Q01DX005 (ip), vehicle: water 95 % of control | endpoint: mean survival time, dose: 12.5 mg/kg/injection, schedule: Q01DX005 (ip), vehicle: water 109 % of control | endpoint: mean survival time, dose: 25.0 mg/kg/injection, schedule: Q01DX005 (ip), vehicle: water 87 % of control | endpoint: mean survival time, dose: 50.0 mg/kg/injection, schedule: Q01DX005 (ip), vehicle: water 102 % of control | endpoint: mean survival time, dose: 100.0 mg/kg/injection, schedule: Q01DX005 (ip), vehicle: water 102 % of control | endpoint: mean survival time, dose: 200.0 mg/kg/injection, schedule: Q01DX005 (ip), vehicle: water 96 % of control | endpoint: mean survival time, dose: 400.0 mg/kg/injection, schedule: Q01DX005 (ip), vehicle: water 96 % of control

O=c1c2ccccc2sc2c1ccc1ccccc12
inactive: endpoint: mean survival time, dose: 100.0 mg/kg/injection, schedule: Q01DX001 (ip), vehicle: saline with Tween-80 100 % of control | endpoint: mean survival time, dose: 200.0 mg/kg/injection, schedule: Q01DX001 (ip), vehicle: saline with Tween-80 101 % of control | endpoint: mean survival time, dose: 400.0 mg/kg/injection, schedule: Q01DX001 (ip), vehicle: saline with Tween-80 94 % of control

Clc1ccc2ccccc2c1C(Cl)Cl
inactive: endpoint: mean survival time, dose: 25.0 mg/kg/injection, schedule: Q01DX009 (ip), vehicle: saline with Tween-80 96 % of control | endpoint: mean survival time, dose: 50.0 mg/kg/injection, schedule: Q01DX009 (ip), vehicle: saline with Tween-80 95 % of control | endpoint: mean survival time, dose: 100.0 mg/kg/injection, schedule: Q01DX009 (ip), vehicle: saline with Tween-80 98 % of control | [1] 91 % of control | endpoint: mean survival time, dose: 200.0 mg/kg/injection, schedule: Q01DX009 (ip), vehicle: saline with Tween-80 102 % of control | [2] 98 % of control | endpoint: mean survival time, dose: 400.0 mg/kg/injection, schedule: Q01DX009 (ip), vehicle: saline with Tween-80 102 % of control | endpoint: mean survival time, dose: 400.0 mg/kg/injection, schedule: Q04DX003 (ip), vehicle: saline with Tween-80 93 % of control

Cc1ccc(-n2c(=S)[nH]c3ccc(C)cc3c2=O)cc1
inactive: endpoint: mean survival time, dose: 0.38 mg/kg/injection, schedule: Q01DX009 (ip), vehicle: saline with Tween-80 90 % of control | endpoint: mean survival time, dose: 0.75 mg/kg/injection, schedule: Q01DX009 (ip), vehicle: saline with Tween-80 92 % of control | endpoint: mean survival time, dose: 1.5 mg/kg/injection, schedule: Q01DX009 (ip), vehicle: saline with Tween-80 98 % of control | endpoint: mean survival time, dose: 1.56 mg/kg/injection, schedule: Q01DX009 (ip), vehicle: saline with Tween-80 95 % of control | endpoint: mean survival time, dose: 25.0 mg/kg/injection, schedule: Q04DX003 (ip), vehicle: saline with Tween-80 92 % of control | endpoint: mean survival time, dose: 50.0 mg/kg/injection, schedule: Q04DX003 (ip), vehicle: saline with Tween-80 90 % of control | [1] 87 % of control

O=C(Nc1ccc(C(=O)O)cc1)Nc1ccc(F)c(Cl)c1
inactive: endpoint: mean survival time, dose: 50.0 mg/kg/injection, schedule: Q01DX009 (ip), vehicle: Klucel (hydroxypropylcellulose) (HPC) 109 % of control | endpoint: mean survival time, dose: 100.0 mg/kg/injection, schedule: Q01DX009 (ip), vehicle: Klucel (hydroxypropylcellulose) (HPC) 102 % of control | endpoint: mean survival time, dose: 100.0 mg/kg/injection, schedule: Q04DX003 (ip), vehicle: Klucel (hydroxypropylcellulose) (HPC) 104 % of control | endpoint: mean survival time, dose: 200.0 mg/kg/injection, schedule: Q01DX009 (ip), vehicle: Klucel (hydroxypropylcellulose) (HPC) 95 % of control | endpoint: mean survival time, dose: 200.0 mg/kg/injection, schedule: Q04DX003 (ip), vehicle: Klucel (hydroxypropylcellulose) (HPC) 104 % of control

From PubChem BioAssay AID256 (DTP/NCI, 2004)
